Several values for one entry are separate records, joined by “and”; a condition that tells them apart may be missing. Equal values may be shown once.
Key:
MV4-11 AML xenograft [1] = experiment: Tumor growth in the MV4-11 AML xenograft model, SEA-CD70 and azacitidine (Example 10); type: in vivo, SCID mice
[2] = test system: MV-411 acute myeloid leukemia model; experiment: Tumor growth in the MV-411 acute myeloid leukemia xenograft model (Example 7); type: in vivo, SCID mice
MV4-11 AML xenograft [3] = experiment: Tumor growth in the MV4-11 AML xenograft model, SEA-CD70, azacitidine, venetoclax (Example 11); type: in vivo, SCID mice; conditions: antibody 10 mg/kg Q4dx5, azacitidine 2 mg/kg Q1dx5 3 cycles, venetoclax 25 mg/kg oral Q1dx21; comparisons at day 39
Source text: Tumor growth was reported as a volume and calculated as an average across animals within each treatment group (FIG. 11A). Immunocompromised SCID mice were implanted with 5×10e6 MV4-11 cells subcutaneously in the flank on day 0. When mean tumor size of 50 mm^3 (measured by using the formula: Volume (mm^3)=0.5*Length*Width^2, where the length is the longer dimension) was reached, mice were randomized into treatment groups of 10 mice per group. Stock concentrations of antibody and chemotherapy were diluted to the appropriate concentration and injected into animals at 10 μl/g of body weight. Tumor length and width, and animal weight were measured two times weekly throughout the study and tumor volume was calculated using the formula above. Animals were followed until tumor volume measured ˜1000 mm^3, at which time the animals were euthanized. Animals were dosed on various schedules based on treatment received; animals receiving antibody were treated with 10 mg/kg of antibody (Q4dx5), azacitidine-treated animals were dosed daily (2 mg/kg) for five consecutive days (Q1dx5) each week, for a total of 3 cycles (3 weeks); venetoclax was given at 25 mg/kg every day by oral gavage for 21 days consecutively (Q1dx21). Animal receiving combination of treatments received each treatment at the same dose and schedule as the single treatments.

[4] = test system: NOMO-1 CD70+ target cells; experiment: ADCP with monocyte-derived macrophages, NOMO-1; type: cell-based, human; conditions: flow cytometry, antibody dose-dependent
Experimental: (§1) Phagocytosis of fluorescently labeled target cells was determined by flow cytometry. Phagocytosis was measured for the appearance of double-labeled coincident events (fluorescent target cells) and anti-CD11c positivity to identify monocyte/macrophages.
(§2) The following protocol was used to assess […] activity on AML cell lines: • 1. Target cells were labeled using the PKH26 Red Fluorescent Cell Linker Mini Kit (Sigma Aldrich) and following the manufacturer's instructions. • 2. Cells (4000 cells/well) were incubated with the indicated test articles for 30 minutes, washed and resuspended in RPMI plus 10% ultra-low IgG FBS. • 3. PBMC-derived macrophages (100,000 cells/well), generated by incubating PBMC-derived monocytes with 500 U/mL (50 ng/mL) GM-CSF for 10-12 days, were added to the target cells and incubated at 37° C. for 2 hours. • 4. Plates were centrifuged and cells resuspended in 100 μl of APC-CD11 antibody (macrophage marker) and incubated on ice for 30 minutes. • 5. Cells were washed, resuspended in PBS and analyzed by flow cytometry to determine the percentage of phagocytosis

CD8 T cells in PBMCs = experiment: CD8 T cell depletion in PBMCs; type: cell-based, human; conditions: 24 hours
Experimental: (§3) At the end of the experiment cells were stained with Zombie Aqua Viability Dye and total viable Treg naïve and memory CD4 and CD8 T cell numbers were assessed. […] Fucosylated (WT Clone 13 IgG1) and nonfucosylated (SEA Clone 13 IgG1) antibodies targeting TIGIT were used as positive controls (FIG. 4E-4H).

[5] = test system: NOMO-1 CD70+ AML cell line; experiment: CDC with normal human serum, NOMO-1; type: cell-based; conditions: normal human serum not heat inactivated
Experimental: (§4) AML cell lines positive for CD70 were fluorescently labeled and treated with increasing concentrations of CD70 directed antibodies. Cells were then exposed to human compliment and lysis determined as release of fluorescent dye.
(§5) The following protocol was used to assess CDC activity on AML cell lines: • 1. Cells were incubated with […] anti-CRP monoclonal antibodies mix (anti-hCD46, anti-hCD55, anti-hCD59) for 30 minutes on ice. • 2. Cells were washed and plated (200,000 cells/well) in media containing non-heat-inactivated serum, Sytox Green (Life technology), and antibodies, which were added at the indicated final concentration, for 2 hours at 37° C. • 3. Cell dead was quantified by detecting Sitox Green fluorescent signal on an Envison plate reader (Perkin Elmer) and normalized over positive control (1% Triton X-100 treated cells).

[6] = test system: T regulatory cells (Treg) in PBMCs; experiment: Treg depletion in PBMCs; type: cell-based, human; conditions: 24 hours
Experimental: as §3

hFcγRIIIa V158 = target: T1, hFcγRIIIa V158 (Homo sapiens, UniProt P08637, F176V); experiment: BLI binding kinetics to high affinity FcγRIIIa (158V) receptor variant; conditions: 1:1 Langmuir global fit
T1 construct: made in house
T1 sequence (P08637 17-208 F176V): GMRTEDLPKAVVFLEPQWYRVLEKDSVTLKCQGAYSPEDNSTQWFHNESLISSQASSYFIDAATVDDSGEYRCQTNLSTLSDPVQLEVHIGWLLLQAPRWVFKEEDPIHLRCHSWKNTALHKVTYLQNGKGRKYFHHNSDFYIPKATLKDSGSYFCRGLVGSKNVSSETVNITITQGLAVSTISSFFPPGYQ

[7] = test system: MOLM-13 CD70+ AML cell line; experiment: CDC with normal human serum, MOLM-13; type: cell-based; conditions: normal human serum not heat inactivated
Experimental: as §4, §5

[8] = test system: MOLM-13 CD70+ target cells; experiment: ADCP with monocyte-derived macrophages, MOLM-13; type: cell-based, human; conditions: flow cytometry, antibody dose-dependent
Experimental: as §1, §2

[9] = antibody 10 mg/kg Q4dx5, azacitidine 2 mg/kg Q1dx5 for 3 cycles

**Q.** How did the “effect on tumor growth” value (MV4-11 AML xenograft [1]; [9]) turn out when “h1F6G1V1: antibody comprising the same CDRs as SEA-CD70, but inactivating backbone mutations (E233P, L234V, L235A) reducing Fcgamma receptor binding” was run?
**A.** Its value is “not effective in reducing tumor growth”.

**Q.** What about the “tumor volume, individual animals” value ([2]; h1F6G1V1 20 mg/kg Q4dx4, day 9 post implant, 20 mg/kg) of the same molecule?
**A.** The value was 48.0 mm^3 and 62.8 mm^3 and 51.3 mm^3 and 49.1 mm^3 and 52.1 mm^3 and 58.2 mm^3.

**Q.** And the “tumor volume, individual animals” value ([2]; h1F6G1V1 20 mg/kg Q4dx4, day 13 post implant, 20 mg/kg)?
**A.** The value was 46.1 mm^3 and 64.4 mm^3 and 65.7 mm^3 and 61.5 mm^3 and 56.8 mm^3 and 65.4 mm^3.

**Q.** And the “tumor volume, individual animals” value ([2]; h1F6G1V1 20 mg/kg Q4dx4, day 16 post implant, 20 mg/kg)?
**A.** The value was 59.3 mm^3 and 109.1 mm^3 and 97.7 mm^3 and 68.1 mm^3 and 64.7 mm^3 and 103.8 mm^3.

**Q.** What about the “tumor volume, individual animals” value ([2]; h1F6G1V1 20 mg/kg Q4dx4, day 20 post implant, 20 mg/kg) of the same molecule?
**A.** Its value is 91.5 mm^3 and 234.8 mm^3 and 241.3 mm^3 and 80.6 mm^3 and 104.4 mm^3 and 127.2 mm^3.

**Q.** What about the “tumor volume, individual animals” value ([2]; h1F6G1V1 20 mg/kg Q4dx4, day 24 post implant, 20 mg/kg) of the same molecule?
**A.** The value was 188.7 mm^3 and 449.2 mm^3 and 338.1 mm^3 and 96.3 mm^3 and 198.9 mm^3 and 274.9 mm^3.

**Q.** What about the “tumor volume, individual animals” value ([2]; h1F6G1V1 20 mg/kg Q4dx4, day 27 post implant, 20 mg/kg) of the same molecule?
**A.** The value was 306.6 mm^3 and 606.7 mm^3 and 567.6 mm^3 and 213.6 mm^3 and 325.4 mm^3 and 433.0 mm^3.

**Q.** What about the “tumor volume, individual animals” value ([2]; h1F6G1V1 20 mg/kg Q4dx4, day 30 post implant, 20 mg/kg) of the same molecule?
**A.** The value was 474.6 mm^3 and 1156.6 mm^3 and 1039.1 mm^3 and 325.4 mm^3 and 470.6 mm^3 and 847.7 mm^3.

**Q.** What about the “tumor volume, individual animals” value ([2]; h1F6G1V1 20 mg/kg Q4dx4, day 34 post implant, 20 mg/kg) of the same molecule?
**A.** Its value is 782.9 mm^3 and 709.0 mm^3 and 1001.0 mm^3 and 1081.8 mm^3.

**Q.** What about the “tumor volume, individual animals” value ([2]; h1F6G1V1 20 mg/kg Q4dx4, day 38 post implant, 20 mg/kg) of the same molecule?
**A.** Its value is 1269.5 mm^3 and 1330.9 mm^3.

**Q.** Which results are given for `Nc1ncn([C@@H]2O[C@H](CO)[C@@H](O)[C@H]2O)c(=O)n1` [azacitidine]?
**A.** effect on tumor growth (MV4-11 AML xenograft [3]): delay tumor growth; effect on tumor growth (MV4-11 AML xenograft [1]; [9]): reduce tumor growth; average time for tumors to reach a 10× fold change (MV4-11 AML xenograft [1]; antibody 10 mg/kg Q4dx5, azacitidine 2 mg/kg Q1dx5 for 3 cycles, intraperitoneally, untreated 17.82 days): 26.59 days; delay in tumor growth (MV4-11 AML xenograft [1]; from time to 10× fold change compared to untreated control): 33%; tumor volume, individual animals ([2]; Vidaza 5 mg/kg Q4dx4, day 9 post implant): 45.0 mm^3 and 50.0 mm^3 and 49.9 mm^3 and 57.6 mm^3 and 59.5 mm^3 and 55.2 mm^3; tumor volume, individual animals ([2]; Vidaza 5 mg/kg Q4dx4, day 13 post implant): 47.9 mm^3 and 47.5 mm^3 and 73.3 mm^3 and 50.9 mm^3 and 84.1 mm^3 and 65.6 mm^3; tumor volume, individual animals ([2]; Vidaza 5 mg/kg Q4dx4, day 16 post implant): 35.9 mm^3 and 42.5 mm^3 and 48.9 mm^3 and 47.2 mm^3 and 99.2 mm^3 and 70.8 mm^3; tumor volume, individual animals ([2]; Vidaza 5 mg/kg Q4dx4, day 20 post implant): 45.2 mm^3 and 47.1 mm^3 and 86.6 mm^3 and 69.9 mm^3 and 162.6 mm^3 and 63.4 mm^3; tumor volume, individual animals ([2]; Vidaza 5 mg/kg Q4dx4, day 24 post implant): 74.2 mm^3 and 66.4 mm^3 and 136.7 mm^3 and 125.0 mm^3 and 301.0 mm^3 and 92.0 mm^3; tumor volume, individual animals ([2]; Vidaza 5 mg/kg Q4dx4, day 27 post implant): 141.5 mm^3 and 129.0 mm^3 and 344.5 mm^3 and 295.9 mm^3 and 465.4 mm^3 and 202.5 mm^3; tumor volume, individual animals ([2]; Vidaza 5 mg/kg Q4dx4, day 30 post implant): 161.8 mm^3 and 130.7 mm^3 and 469.6 mm^3 and 379.5 mm^3 and 778.9 mm^3 and 279.0 mm^3; tumor volume, individual animals ([2]; Vidaza 5 mg/kg Q4dx4, day 34 post implant): 303.9 mm^3 and 260.2 mm^3 and 649.8 mm^3 and 640.9 mm^3 and 1238.8 mm^3 and 451.9 mm^3; tumor volume, individual animals ([2]; Vidaza 5 mg/kg Q4dx4, day 38 post implant): 568.7 mm^3 and 452.8 mm^3 and 1164.6 mm^3 and 993.8 mm^3 and 740.5 mm^3; tumor volume, individual animals ([2]; Vidaza 5 mg/kg Q4dx4, day 41 post implant): 978.2 mm^3 and 688.1 mm^3 and 1063.7 mm^3; delay in tumor growth ([2]; from time to 10× fold change versus untreated, h1F6SEA 10 mg/kg, azacitidine 5 mg/kg): 20.5%; average time for tumors to reach a 10× fold change ([2]; h1F6SEA 10 mg/kg, azacitidine 5 mg/kg, Q4dx4 intraperitoneally, untreated 26.8 days): 33.68 days

B1: SGN-70: fucosylated parent anti-CD70 antibody (h1F6) of SEA-CD70 (antibody, chains of the INN, looked up, V domains shown)
VH: QVQLVQSGAEVKKPGASVKVSCKASGYTFTNYGMNWVRQAPGQGLKWMGWINTYTGEPTYADAFKGRVTMTRDTSISTAYMELSRLRSDDTAVYYCARDYGDYGMDYWGQGTTVTVSS
VL: DIVMTQSPDSLAVSLGERATINCRASKSVSTSGYSFMHWYQQKPGQPPKLLIYLASNLESGVPDRFSGSGSGTDFTLTISSLQAEDVAVYYCQHSREVPWTFGQGTKVEIK
**Q.** How did the “phagocytosis of antibody-coated target cells by macrophages” value [4] turn out when B1 was run?
**A.** Its value is “readily phagocytosed target cells”.

**Q.** And the “CD8+ cell depletion” value (CD8 T cells in PBMCs; V/V high affinity donor)?
**A.** The value was “Neither fucosylated nor nonfucosylated anti-CD70 antibodies depleted CD8+ cells”.

**Q.** And the “CD8+ cell depletion” value (CD8 T cells in PBMCs; low affinity (F/F 158) donor)?
**A.** Its value is “Neither fucosylated nor nonfucosylated anti-CD70 antibodies depleted CD8+ cells”.

**Q.** What about the “cell lysis by complement fixation” value [5] of the same molecule?
**A.** The value was “lysed in an antibody-specific, dose-dependent manner”.

**Q.** And the “T regulatory cell depletion” value ([6]; donor homozygous for high affinity FcγRIIIa (V/V 158))?
**A.** Its value is “resulted in T regulatory cell depletion”.

**Q.** And the “T regulatory cell depletion” value ([6]; donor homozygous for low affinity FcγRIIIa (F/F 158))?
**A.** Its value is “Neither CD70 targeting antibody induced T regulatory cell depletion”.

**Q.** What about the Kd (hFcγRIIIa V158) of the same molecule?
**A.** Its Kd is 860 nM.

**Q.** And the “cell lysis by complement fixation” value [7]?
**A.** Its value is “lysed in an antibody-specific, dose-dependent manner”.

**Q.** And the “phagocytosis of antibody-coated target cells by macrophages” value [8]?
**A.** Its value is “readily phagocytosed target cells”.

— patent publication US11820827B2, “Methods of treating myelodysplastic syndrome and acute myeloid leukemia with nonfucosylated anti-CD70 antibodies” (Seagen Inc., priority 2019, dated 2023)
